Assay results from patent US20230391764A1, “BENZOTHIAZOLYL BICYCLO[1.1.1]PENTANE DERIVATIVES FOR THE TREATMENT AND PROPHYLAXIS OF HEPATITIS B VIRUS INFECTION” (Hoffmann-La Roche Inc., priority 2021, published 2023).

How the values were obtained:
Assay type in all cases: cell-based
[1] = tested on: HBsAg; experiment: PHH HBV natural infection assay, HBsAg (alphalisa); settings: Hepatitis B virus, 72 h, read-out: HBsAg IC50
Protocol: (§1) Detailed procedures regarding primary human hepatocyte (PHH) HBV natural infection assay are described as below. One tube of frozen PHH (10 million cells) is thawed in 37° C. water bath and then transferred to 20 mL of PHH thawing medium (Sigma, InVitroGRO HT Medium, Cat. S03319) with gently mixing. The cells were then centrifuged at […] for 5 min, the supernatant was discarded and the tube was refilled with 25 mL of PHH plating medium (Sigma, InVitroGRO CP Medium, Cat. S03317). The tube was shaken very gently to re-suspend all cells, and then 50 μl of cells were transferred to each well 384-well collagen I coated plate with appropriate liquid handling equipment, e.g. Integra VIAFLO384 or Agilent Bravo. The cells were then cultured for 24 hours in a cell incubator. For HBV infection, after PHH attachment on the culture plate, the plating medium was removed and replenished with PHH culture medium containing HBV virus. The PHH culture medium was prepared with Dulbecco's Modified Eagle Medium (DMEM)/F12 (1:1 in volume ratio) containing 10% fetal bovine serum (Gibco, Cat.10099141), 5 ng/mL human epidermal growth factor (Gibco, Cat.PHG0311L), 20 ng/mL dexamethasone (Sigma, Cat.D4902-100 mg), 250 ng/mL human recombinant insulin (Gibco, Cat.41400045) and 100 U/mL penicillin. HBV virus at 200 genome equivalent (GE) per cell with 4% PEG8000 (Sigma, Cat.P1458) containing culture medium were added to the PHH culture medium for infection. The cells were then cultured for 24 hours in cell incubator. Then the cell culture supernatant was removed. The HBV-infected PHH were cultured with sandwich culture method with PHH culture medium containing 1% DMSO and 0.25 mg/mL matrix gel for 72 hours. The supernatant was then refreshed with PHH culture medium containing different concentrations of testing compounds for two times with 72-hour interval. At the end of treatment, the supernatant was collected for viral markers measurements, including HBsAg, HBeAg, HBV DNA and cytotoxicity. HBsAg and HBeAg were detected using alphalisa method using their specific antibodies. For HBV DNA detection, HBV DNA Quantitative Fluorescence Diagnostic Kit (Sansure Biotech Inc.) was used following the manufacture's protocol. Cytotoxicity was determined using Cell Counting Kit-8 (CCK8, Dojindo Molecular Technologies, Inc.).
(§2) The compounds of the present invention were tested for their capacity to inhibit HBsAg and HBeAg as described herein.

[2] = tested on: HBeAg; experiment: PHH HBV natural infection assay, HBeAg (alphalisa); settings: Hepatitis B virus, 72 h, read-out: HBeAg IC50
Protocol: as §1, §2

[3] = PHH natural infection assay, cytotoxicity (Cell Counting Kit-8); settings: human; HBV-infected PHH, CCK8
Protocol: as §1

Row | Structure (SMILES) | IC50 [1] [µM] | IC50 [2] [µM] | CC50 at 144 h [3] [µM]
1 | C[C@H](c1ccc(C(=O)NC23CC(c4nc5ccc(Cl)cc5s4)(C2)C3)o1)S(C)(=O)=O (single isomer, unassigned) [Example 56a] | 0.23 | 0.23 | 15
2 | C[C@@H](c1ccc(C(=O)NC23CC(c4nc5ccc(Cl)cc5s4)(C2)C3)o1)S(C)(=O)=O (single isomer, unassigned) [Example 56b] | 0.19 | 0.16 | 14.7
3 | CS(=O)(=O)C1(c2ccc(C(=O)NC34CC(c5nc6ccc(Br)cc6s5)(C3)C4)o2)CC1 [Example 2, N-[1-(6-bromo-1,3-benzothiazol-2-yl)-3-bicyclo[1.1.1]pentanyl]-5-(1-methylsulfonylcyclopropyl)furan-2-carboxamide] | 0.17 | 0.11 | 5.85
4 | CS(=O)(=O)C1(c2nsc(C(=O)NC34CC(c5nc6ccc(Br)cc6s5)(C3)C4)n2)CC1 [Example 4] | 0.07 | 0.05 | 4.22
5 | CS(=O)(=O)C1(c2ccc(C(=O)NC34CC(c5nc6cc(Br)ccc6s5)(C3)C4)o2)CC1 [Example 6, N-(3-(5-bromobenzo[d]thiazol-2-yl)bicyclo[1.1.1]pentan-1-yl)-5-(1-(methylsulfonyl)cyclopropyl)furan-2-carboxamide] | 0.17 | 0.1 | 6.03
6 | CS(=O)(=O)C1(c2nsc(C(=O)NC34CC(c5nc6cc(Br)ccc6s5)(C3)C4)n2)CC1 [Example 7] | 0.1 | 0.06 | 8.52
7 | CS(=O)(=O)C1(c2ccc(C(=O)NC34CC(c5nc6ccc(C#N)cc6s5)(C3)C4)o2)CC1 [Example 8] | 0.79 | 0.72 | 12.5
8 | C#Cc1ccc2nc(C34CC(NC(=O)c5ccc(C6(S(C)(=O)=O)CC6)o5)(C3)C4)sc2c1 [Example 10] | 0.37 | 0.27 | 11
9 | CS(=O)(=O)C1(c2ccc(C(=O)NC34CC(c5nc6ccc(F)cc6s5)(C3)C4)o2)CC1 [Example 11] | 0.48 | 0.36 | 16.3
10 | CS(=O)(=O)Cc1ccc(C(=O)NC23CC(c4nc5ccc(Cl)cc5s4)(C2)C3)o1 [Example 13] | 1.02 | 0.8 | > 50
11 | CCC(c1ccc(C(=O)NC23CC(c4nc5ccc(Cl)cc5s4)(C2)C3)o1)S(C)(=O)=O (stereo not drawn) [Example 14] | 0.2 | 0.15 | > 10
12 | CS(=O)(=O)C1(c2ccc(C(=O)NC34CC(c5nc6ccc(Cl)cc6s5)(C3)C4)o2)CC1 [Example 15] | 0.21 | 0.16 | 6.33
13 | CC(C)(c1ccc(C(=O)NC23CC(c4nc5ccc(Cl)cc5s4)(C2)C3)o1)S(C)(=O)=O [Example 16] | 0.29 | 0.24 | 3.76
14 | CC(c1ccc(C(=O)NC23CC(c4nc5ccc(Cl)cc5s4)(C2)C3)o1)S(C)(=O)=O (stereo not drawn) [Example 17, N-[3-(6-chloro-1,3-benzothiazol-2-yl)-1-bicyclo[1.1.1]pentanyl]-5-(1-methylsulfonylethyl)furan-2-carboxamide] | 0.17 | 0.15 | 14.6
15 | CC(C)(c1ncc(C(=O)NC23CC(c4nc5ccc(Cl)cc5s4)(C2)C3)o1)S(C)(=O)=O [Example 22] | 0.72 | 0.47 | 7.55
16 | CC(C)(c1cc(C(=O)NC23CC(c4nc5ccc(Cl)cc5s4)(C2)C3)sn1)S(C)(=O)=O [Example 27] | 0.84 | 0.65 | 8.55
17 | CC(c1nsc(C(=O)NC23CC(c4nc5ccc(Cl)cc5s4)(C2)C3)n1)S(C)(=O)=O (stereo not drawn) [Example 31] | 0.74 | 0.63 | 5.71

Row | Structure (SMILES) | IC50 [1] [µM] | IC50 [2] [µM] | CC50 at 144 h [3] [µM]
18 | CC(C)(c1nsc(C(=O)NC23CC(c4nc5ccc(Cl)cc5s4)(C2)C3)n1)S(C)(=O)=O [Example 32] | 0.43 | 0.33 | 2.95
19 | CC(n1ccc(C(=O)NC23CC(c4nc5ccc(Cl)cc5s4)(C2)C3)n1)S(C)(=O)=O (stereo not drawn) [Example 34] | 0.44 | 0.39 | 7.01
20 | CS(=O)(=O)C(Br)c1ccc(C(=O)NC23CC(c4nc5cc(Cl)ccc5s4)(C2)C3)o1 (stereo not drawn) [Example 43] | 0.5 | 0.48 | 22.8
21 | CCC(c1ccc(C(=O)NC23CC(c4nc5cc(Cl)ccc5s4)(C2)C3)o1)S(C)(=O)=O (stereo not drawn) [Example 44] | 0.23 | 0.16 | 20.4
22 | CC(C)(c1ccc(C(=O)NC23CC(c4nc5cc(Cl)ccc5s4)(C2)C3)o1)S(C)(=O)=O [Example 45] | 0.39 | 0.25 | 9.94
23 | CC(c1ccc(C(=O)NC23CC(c4nc5cc(Cl)ccc5s4)(C2)C3)o1)S(C)(=O)=O (stereo not drawn) [Example 46] | 0.37 | 0.23 | 15.3
24 | CS(=O)(=O)C1(c2ccc(C(=O)NC34CC(c5nc6cc(Cl)ccc6s5)(C3)C4)o2)CC1 [Example 47] | 0.32 | 0.22 | 6.62
25 | C[S+]([O-])C(C)(C)c1ccc(C(=O)NC23CC(c4nc5cc(Cl)ccc5s4)(C2)C3)o1 (stereo not drawn) [Example 50] | 0.1 | 0.08 | 1.64
26 | CC(c1ccn(C(=O)NC23CC(c4nc5ccc(Cl)cc5s4)(C2)C3)n1)S(C)(=O)=O (stereo not drawn) [Example 58, N-[3-(6-chloro-1,3-benzothiazol-2-yl)-1-bicyclo[1.1.1]pentanyl]-3-(1-methylsulfonylethyl)pyrazole-1-carboxamide] | 0.34 | 0.24 | 6.06
27 | CC(C)(c1ccn(C(=O)NC23CC(c4nc5ccc(Cl)cc5s4)(C2)C3)n1)S(C)(=O)=O [Example 60] | 0.122 | 0.09 | 4.82
28 | CC(C)(c1ccn(C(=O)NC23CC(c4nc5cc(Br)ccc5s4)(C2)C3)n1)S(C)(=O)=O [Example 61] | 0.11 | 0.08 | 2.09
29 | CS(=O)(=O)C1(c2ccn(C(=O)NC34CC(c5nc6cc(Br)ccc6s5)(C3)C4)n2)CC1 [Example 62] | 0.07 | 0.04 | 3.83
30 | CS(=O)(=O)C1(c2ccn(C(=O)NC34CC(c5nc6ccc(Cl)cc6s5)(C3)C4)n2)CC1 [Example 63] | 0.11 | 0.08 | 5.06
31 | CS(=O)(=O)C1(c2ncc(C(=O)NC34CC(c5nc6ccc(Cl)cc6s5)(C3)C4)o2)CC1 [Example 67, N-[3-(6-chloro-1,3-benzothiazol-2-yl)-1-bicyclo[1.1.1]pentanyl]-2-(1-methylsulfonylcyclopropyl)oxazole-5-carboxamide] | 0.4 | 0.32 | 7.25
32 | CS(=O)(=O)C(Cl)c1ccc(C(=O)NC23CC(c4nc5cc(Cl)ccc5s4)(C2)C3)o1 (stereo not drawn) [Example 75, 5-(chloro(methylsulfonyl)methyl)-N-(3-(5-chlorobenzo[d]thiazol-2-yl)bicyclo[1.1.1]pentan-1-yl)furan-2-carboxamide] | 0.55 | 0.43 | 16.8
33 | CS(=O)(=O)C1(c2noc(C(=O)NC34CC(c5nc6ccc(Cl)cc6s5)(C3)C4)n2)CC1 [Example 76, N-[3-(6-chloro-1,3-benzothiazol-2-yl)-1-bicyclo[1.1.1]pentanyl]-3-(1-methylsulfonylcyclopropyl)-1,2,4-oxadiazole-5-carboxamide] | 0.7 | 0.4 | 4.27
34 | CS(=O)(=O)C1(c2nc(C(=O)NC34CC(c5nc6ccc(Br)cc6s5)(C3)C4)no2)CC1 [Example 77, N-[3-(6-bromo-1,3-benzothiazol-2-yl)-1-bicyclo[1.1.1]pentanyl]-5-(1-methylsulfonylcyclopropyl)-1,2,4-oxadiazole-3-carboxamide] | 0.86 | 0.62 | 6.49
